# Assay results reported in patent publication US6737383B1, “Herbicidal oxadiazolidines” (priority 1999, dated 2004).
# Tests used:
# surinam grass = assay: Test B pre/postemergence surinam grass; format: in vivo, Brachiaria decumbens
# In short: (§1)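 Test chemicals in a non-phytotoxic solvent mixture with surfactant were sprayed preemergence onto planted seeds and postemergence onto plants 2 to 18 cm tall (1- to 4-leaf stage). After twelve to sixteen days in a greenhouse, injury was visually rated against untreated controls from 0 (no effect) to 10 (complete control).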
# cocklebur = assay: Test B pre/postemergence cocklebur; format: in vivo, Xanthium strumarium
# In short: as §1
# corn = assay: Test B pre/postemergence corn; format: in vivo, Zea mays
# In short: as §1
# crabgrass = assay: Test B pre/postemergence crabgrass; format: in vivo, Digitaria sanguinalis
# In short: as §1
# [1] = Postemergence, Rate 62 g/ha, scale 0 to 10, 0 is no effect, 10 is complete control
# [2] = Postemergence, Rate 250 g/ha, scale 0 to 10, 0 no effect, 10 complete control
# [3] = Preemergence, Rate 62 g/ha, scale 0 to 10 (0 no effect, 10 complete control)
# [4] = Preemergence, Rate 125 g/ha, scale 0 to 10 (0 no effect, 10 complete control)
# [5] = Preemergence, Rate 250 g/ha, scale of 0 to 10 where 0 is no effect and 10 is complete control
# [6] = Preemergence, Rate 500 g/ha, scale 0 (no effect) to 10 (complete control)
# [7] = Rate 125 g/ha, Postemergence, scale 0 to 10, 0 no effect, 10 complete control
# [8] = Rate 500 g/ha, Postemergence, scale of 0 to 10 where 0 is no effect and 10 is complete control
# [9] = Rate 500 g/ha, Postemergence, scale 0 to 10, 0 no effect, 10 complete control
# [10] = Postemergence, Rate 125 g/ha, scale of 0 to 10 where 0 is no effect and 10 is complete control
# [11] = Postemergence, Rate 250 g/ha, scale of 0 to 10, 0 is no effect, 10 is complete control
# [12] = Postemergence, Rate 500 g/ha, scale of 0 to 10 where 0 is no effect and 10 is complete control
# [13] = Preemergence, Rate 125 g/ha, scale of 0 to 10 where 0 is no effect and 10 is complete control
# [14] = Preemergence, Rate 500 g/ha, scale of 0 to 10 where 0 is no effect and 10 is complete control
# [15] = Preemergence, Rate 62 g/ha, scale of 0 to 10 where 0 is no effect and 10 is complete control
# [16] = Rate 62 g/ha, Postemergence, scale of 0 to 10 where 0 is no effect and 10 is complete control
# [17] = Rate 125 g/ha, Preemergence, scale of 0 to 10 where 0 is no effect and 10 is complete control
# [18] = Rate 125 g/ha, Postemergence, scale 0 to 10
smiles,measurement,setting,value
Cc1cc(C)c(-n2c(=O)on(C(=O)N(c3ccc(Cl)cc3)C(C)C)c2=O)c(C)c1 [Compound 61],B. signalgrass plant response rating,surinam grass; [1],0
same,B. signalgrass plant response rating,surinam grass; [2],0
same,B. signalgrass plant response rating,surinam grass; [3],0
same,"Plant response rating, B. signalgrass",surinam grass; [4],1
same,"Plant response rating, B. signalgrass",surinam grass; [5],5
same,B. signalgrass plant response rating,surinam grass; [6],5
same,B. signalgrass plant response rating,surinam grass; [7],0
same,B. signalgrass plant response rating,surinam grass; [8],1
same,Cocklebur plant response rating,cocklebur; [1],0
same,Cocklebur plant response rating,cocklebur; [2],0
same,Cocklebur plant response rating,cocklebur; [3],0
same,"Plant response rating, Cocklebur",cocklebur; [4],0
same,"Plant response rating, Cocklebur",cocklebur; [5],0
same,Cocklebur plant response rating,cocklebur; [6],0
same,Cocklebur plant response rating,cocklebur; [7],0
same,Cocklebur plant response rating,cocklebur; [9],1
same,Corn plant response rating,corn; [1],0
same,Corn plant response rating,corn; [2],0
same,Corn plant response rating,corn; [3],0
same,"Plant response rating, Corn",corn; [4],0
same,"Plant response rating, Corn",corn; [5],0
same,Corn plant response rating,corn; [6],0
same,Corn plant response rating,corn; [7],0
same,Corn plant response rating,corn; [9],0
same,Crabgrass plant response rating,crabgrass; [1],0
same,Crabgrass plant response rating,crabgrass; [2],0
same,Crabgrass plant response rating,crabgrass; [3],0
same,"Plant response rating, Crabgrass",crabgrass; [4],4
same,"Plant response rating, Crabgrass",crabgrass; [5],7
same,Crabgrass plant response rating,crabgrass; [6],8
same,Crabgrass plant response rating,crabgrass; [7],0
same,Crabgrass plant response rating,crabgrass; [9],0
CCC(C)n1c(=O)on(C(=O)N(c2ccccc2)C(C)C)c1=O (stereo not shown) [Compound 612],"Plant response rating, B. signalgrass",surinam grass; [1],1
same,"Plant response rating, B. signalgrass",surinam grass; [10],3
same,B. signalgrass plant response rating,surinam grass; [11],7
same,"Plant response rating, B. signalgrass",surinam grass; [12],9
same,B. signalgrass plant response rating,surinam grass; [3],4
same,B. signalgrass plant response rating,surinam grass; [13],7
same,"B. signalgrass plant response rating (0 to 10 scale, 0 is no effect, 10 is complete control)","surinam grass; Preemergence, Rate 250 g/ha",10
same,B. signalgrass plant response rating,surinam grass; [14],10
same,"Plant response rating, Cocklebur",cocklebur; [1],0
same,"Plant response rating, Cocklebur",cocklebur; [10],0
same,Cocklebur plant response rating,cocklebur; [11],0
same,"Plant response rating, Cocklebur",cocklebur; [12],2
same,Cocklebur plant response rating,cocklebur; [3],0
same,Cocklebur plant response rating,cocklebur; [13],0
same,Cocklebur plant response rating (0 to 10 scale),"cocklebur; Preemergence, Rate 250 g/ha",0
same,"Plant response rating, Cocklebur",cocklebur; [14],0
same,"Plant response rating, Corn",corn; [1],0
same,"Plant response rating, Corn",corn; [10],0
same,Corn plant response rating,corn; [11],0
same,"Plant response rating, Corn",corn; [12],0
same,Corn plant response rating,corn; [3],0
same,Corn plant response rating,corn; [13],3
same,Corn plant response rating (0 to 10 scale),"corn; Preemergence, Rate 250 g/ha",8
same,"Plant response rating, Corn",corn; [14],9
same,"Plant response rating, Crabgrass",crabgrass; [1],4
same,"Plant response rating, Crabgrass",crabgrass; [10],8
same,Crabgrass plant response rating,crabgrass; [11],9
same,"Plant response rating, Crabgrass",crabgrass; [12],10
same,Crabgrass plant response rating,crabgrass; [3],10
same,Crabgrass plant response rating,crabgrass; [13],10
same,"Plant response rating, Crabgrass",crabgrass; [14],10
CCc1ccc(N(C(=O)n2oc(=O)n(-c3ccccc3C)c2=O)C(C)C)cc1 [Compound 230],B. signalgrass plant response rating,surinam grass; [15],0
same,B. signalgrass plant response rating,"surinam grass; Preemergence, Rate 250 g/ha, scale 0 to 10, 0 is no effect, 10 is complete control",0
same,"Plant response rating, B. signalgrass",surinam grass; [14],0
same,B. signalgrass plant response rating,surinam grass; [16],0
same,B. signalgrass plant response rating,"surinam grass; Rate 125 g/ha, Postemergence, scale 0 (no effect) to 10 (complete control)",0
same,B. signalgrass plant response rating,surinam grass; [17],0
same,"Plant response rating (0 to 10; 0 is no effect, 10 is complete control), B. signalgrass","surinam grass; Rate 250 g/ha, Postemergence",0
same,B. signalgrass plant response rating,surinam grass; [9],0
same,Cocklebur plant response rating,cocklebur; [15],0
same,Cocklebur plant response rating,cocklebur; [5],0
same,"Plant response rating, Cocklebur",cocklebur; [14],0
same,Cocklebur plant response rating,cocklebur; [16],0
same,Cocklebur plant response rating,cocklebur; [18],0
same,Cocklebur plant response rating,cocklebur; [17],0
same,"Plant response rating (0 to 10; 0 is no effect, 10 is complete control), Cocklebur","cocklebur; Rate 250 g/ha, Postemergence",0
same,Cocklebur plant response rating,cocklebur; [9],0
same,Corn plant response rating,corn; [15],0
same,Corn plant response rating,corn; [5],0
same,"Plant response rating, Corn",corn; [14],0
same,Corn plant response rating,corn; [16],0
same,Corn plant response rating,corn; [18],0
same,Corn plant response rating,corn; [17],0
same,"Plant response rating (0 to 10; 0 is no effect, 10 is complete control), Corn","corn; Rate 250 g/ha, Postemergence",0
same,Corn plant response rating,corn; [9],0
same,Crabgrass plant response rating,crabgrass; [15],1
same,Crabgrass plant response rating,crabgrass; [5],7
same,"Plant response rating, Crabgrass",crabgrass; [14],9
same,Crabgrass plant response rating,crabgrass; [16],0
same,Crabgrass plant response rating,crabgrass; [18],0
same,Crabgrass plant response rating,crabgrass; [17],1
same,"Plant response rating (0 to 10; 0 is no effect, 10 is complete control), Crabgrass","crabgrass; Rate 250 g/ha, Postemergence",0
same,Crabgrass plant response rating,crabgrass; [9],2
Cc1cccc(C(C)C)c1-n1c(=O)on(C(=O)N(c2ccc(F)cc2)C(C)C)c1=O [Compound 65],B. signalgrass plant response rating,surinam grass; [1],0
same,B. signalgrass plant response rating,surinam grass; [2],0
same,B. signalgrass plant response rating,surinam grass; [3],0
same,"Plant response rating, B. signalgrass",surinam grass; [4],0
same,"Plant response rating, B. signalgrass",surinam grass; [5],0
same,B. signalgrass plant response rating,surinam grass; [6],0
same,B. signalgrass plant response rating,surinam grass; [7],0
same,B. signalgrass plant response rating,surinam grass; [8],0
same,Cocklebur plant response rating,cocklebur; [1],0
same,Cocklebur plant response rating,cocklebur; [2],0
same,Cocklebur plant response rating,cocklebur; [3],0
same,"Plant response rating, Cocklebur",cocklebur; [4],0
same,"Plant response rating, Cocklebur",cocklebur; [5],0
same,Cocklebur plant response rating,cocklebur; [6],0
same,Cocklebur plant response rating,cocklebur; [7],0
same,Cocklebur plant response rating,cocklebur; [9],0
same,Corn plant response rating,corn; [1],0
same,Corn plant response rating,corn; [2],0
same,Corn plant response rating,corn; [3],0
same,"Plant response rating, Corn",corn; [4],0
same,"Plant response rating, Corn",corn; [5],0
same,Corn plant response rating,corn; [6],0
same,Corn plant response rating,corn; [7],0
same,Corn plant response rating,corn; [9],0
same,Crabgrass plant response rating,crabgrass; [1],0
same,Crabgrass plant response rating,crabgrass; [2],0
same,Crabgrass plant response rating,crabgrass; [3],0
same,"Plant response rating, Crabgrass",crabgrass; [4],2
same,"Plant response rating, Crabgrass",crabgrass; [5],4
same,Crabgrass plant response rating,crabgrass; [6],9
same,Crabgrass plant response rating,crabgrass; [7],0
same,Crabgrass plant response rating,crabgrass; [9],0
